Source: patent US20220386606A1, “SPECIFICALLY SUBSTITUTED 3-PHENYL-5-SPIROCYCLOPENTYL-3-PYRROLIN-2-ONES AND THEIR USE AS HERBICIDES” (Bayer Aktiengesellschaft, priority 2019, published 2022)

How the values were obtained:
AVEFA [1] = test: Post-emergence herbicidal action against AVEFA; format: in vivo, Avena fatua; details: 80 g/ha, visual assessment after about 3 weeks
Procedure: (§1) Seeds of monocotyledonous and dicotyledonous weed and crop plants are laid out in sandy loam soil in wood-fiber pots, covered with soil and cultivated in a greenhouse under good growth conditions. 2 to 3 weeks after sowing, the test plants are treated at the one-leaf stage. The compounds of the invention, formulated in the form of wettable powders (WP) or as emulsion concentrates (EC), are then sprayed onto the green parts of the plants as aqueous suspension or emulsion at a water application rate equating to 600 to 800 l/ha with addition of 0.2% wetting agent. After the test plants have been left to stand in the greenhouse under optimal growth conditions for about 3 weeks, the action of the preparations is assessed visually in comparison to untreated controls (herbicidal action in percent (%): 100% activity=the plants have died, 0% activity=like control plants).

DIGSA [2] = test: Post-emergence herbicidal action against DIGSA; format: in vivo, Digitaria sanguinalis; details: 80 g/ha, visual assessment about 3 weeks after treatment vs untreated controls
Procedure: as §1

SETVI [3] = test: Post-emergence herbicidal action against SETVI; format: in vivo, Setaria viridis; details: 80 g/ha, visual assessment about 3 weeks after treatment vs untreated controls
Procedure: as §1

ECHCG [4] = test: Post-emergence herbicidal action against ECHCG; format: in vivo, Echinochloa crus-galli; details: 80 g/ha, visual assessment about 3 weeks after treatment vs untreated controls
Procedure: as §1

LOLRI [5] = test: Pre-emergence herbicidal action against LOLRI (Table 8, titled post-emergence at 320 g/ha); format: in vivo, Lolium rigidum; details: table stands in the pre-emergence section
From the text: (§2) Seeds of monocotyledonous and dicotyledonous weed plants and crop plants are laid out in sandy loam soil in wood-fiber pots and covered with soil. The compounds of the invention, formulated in the form of wettable powders (WP) or as emulsion concentrates (EC), are then applied to the surface of the covering soil as aqueous suspension or emulsion at a water application rate equating to 600 to 800 L/ha with addition of 0.2% wetting agent.
(§3) After the treatment, the pots are placed in a greenhouse and kept under good growth conditions for the trial plants. The damage to the test plants is scored visually after a test period of 3 weeks by comparison with untreated controls (herbicidal activity in percent (%): 100% activity=the plants have died, 0% activity=like control plants).

ALOMY [6] = test: Post-emergence herbicidal action against ALOMY; format: in vivo, Alopecurus myosuroides; details: 80 g/ha, visual assessment after about 3 weeks
Procedure: as §1

LOLRI [7] = test: Post-emergence herbicidal action against LOLRI; format: in vivo, Lolium rigidum; details: 80 g/ha, visual assessment about 3 weeks after treatment vs untreated controls
Procedure: as §1

DIGSA [8] = test: Pre-emergence herbicidal action against DIGSA; format: in vivo, Digitaria sanguinalis; details: 320 g/ha, scored visually after 3 weeks vs untreated controls
From the text: as §2, §3

SETVI [9] = test: Pre-emergence herbicidal action against SETVI; format: in vivo, Setaria viridis; details: 320 g/ha, scored visually after 3 weeks vs untreated controls
From the text: as §2, §3

ECHCG [10] = test: Pre-emergence herbicidal action against ECHCG; format: in vivo, Echinochloa crus-galli; details: 320 g/ha, scored visually after 3 weeks vs untreated controls
From the text: as §2, §3

ALOMY [11] = test: Pre-emergence herbicidal action against ALOMY; format: in vivo, Alopecurus myosuroides; details: 320 g/ha, scored visually after 3 weeks vs untreated controls
From the text: as §2, §3

AVEFA [12] = test: Pre-emergence herbicidal action against AVEFA; format: in vivo, Avena fatua; details: 320 g/ha, scored visually after 3 weeks vs untreated controls
From the text: as §2, §3

| SMILES | Post-emergence action against AVEFA in % (AVEFA [1]) | Post-emergence action against DIGSA in % (DIGSA [2]) | Post-emergence action against SETVI in % (SETVI [3]) | Post-emergence action against ECHCG in % (ECHCG [4]) | Pre-emergence herbicidal action against LOLRI in % (LOLRI [5]) | Post-emergence action against ALOMY in % (ALOMY [6]) | Post-emergence action against LOLRI in % (LOLRI [7]) | Pre-emergence action against DIGSA in % (DIGSA [8]) | Pre-emergence action against SETVI in % (SETVI [9]) | Pre-emergence action against ECHCG in % (ECHCG [10]) | Pre-emergence action against ALOMY in % (ALOMY [11]) | Pre-emergence action against AVEFA in % (AVEFA [12]) |
| --- | --- | --- | --- | --- | --- | --- | --- | --- | --- | --- | --- | --- |
| CC#Cc1cc(C)c(C2=C(O)C3(CCC(COC)C3)NC2=O)c(F)c1 (centres unmarked) [Example I-34] | 90% | 100% | 100% | 100% | 100% | 100% | 100% | 100% | 100% |  |  |  |
| CC#Cc1cc(C)c(C2=C(O)C3(CCC(COCC)C3)NC2=O)c(F)c1 (centres unmarked) [Example I-37] | 100% | 100% | 100% | 100% | 100% | 100% | 90% | 90% | 100% | 100% | 80% |  |
| CC#Cc1cc(F)c(C2=C(O)C3(CCC(COCC)C3)NC2=O)c(OC)c1 (centres unmarked) [Example I-43] | 90% |  | 100% | 100% | 100% | 100% | 90% | 100% | 100% | 100% | 100% | 100% |
| C=CCOCC1CCC2(C1)NC(=O)C(c1c(F)cc(C#CC)cc1OC)=C2O (centres unmarked) [Example I-54] |  |  | 100% | 100% | 100% | 100% | 90% | 100% | 100% | 100% | 100% | 80% |
| CC#Cc1cc(F)c(C2=C(O)C3(CCC(COCCC)C3)NC2=O)c(OC)c1 (centres unmarked) [Example I-56] | 90% | 90% | 100% | 100% | 100% | 90% | 80% | 100% | 100% | 100% | 80% |  |
| CC#Cc1cc(F)c(C2=C(O)C3(CCC(COCCC)C3)NC2=O)c(OC)c1 (centres unmarked) [Example I-57] |  | 90% | 100% | 100% | 100% |  | 80% | 100% | 100% | 100% | 100% |  |
| CC#Cc1cc(Br)c(C2=C(O)C3(CCC(COCC)C3)NC2=O)c(OCC)c1 (centres unmarked) [Example I-63] | 80% | 90% | 100% | 100% | 100% | 100% | 90% | 100% | 100% | 100% | 100% | 100% |
| CC#Cc1cc(Br)c(C2=C(O)C3(CCC(COCC)C3)NC2=O)c(OCC)c1 (centres unmarked) [Example I-64] | 80% | 80% | 100% | 100% | 100% | 90% | 90% | 100% | 100% | 100% | 100% | 80% |
| CC#Cc1cc(Br)c(C2=C(O)C3(CCC(COC)C3)NC2=O)c(OCC)c1 (centres unmarked) [Example I-66] | 80% | 90% | 100% | 100% | 100% | 100% | 100% | 100% | 100% | 100% | 100% | 100% |
| C#CCOCC1CCC2(C1)NC(=O)C(c1c(F)cc(C#CC)cc1OC)=C2O (centres unmarked) [Example I-74] | 80% | 90% | 100% | 100% | 100% | 90% | 90% | 100% | 100% | 100% | 100% | 90% |
| CC#Cc1cc(Br)c(C2=C(OC(=O)C(C)C)C3(CCC(COC)C3)NC2=O)c(CC)c1 (centres unmarked) [Example P-45] |  |  |  |  |  |  |  |  | 80% |  |  |  |
| CC#Cc1cc(F)c(C2=C(OC(=O)OCC)C3(CCC(COC)C3)NC2=O)c(OC)c1 (centres unmarked) [Example P-63] | 80% | 100% | 100% | 100% | 100% | 100% | 100% | 100% | 100% | 90% | 100% | 90% |
| C=CCOCC1CCC2(C1)NC(=O)C(c1c(C)cc(C#CC)cc1OC)=C2OC(=O)OCC (centres unmarked) [Example P-68] | 90% | 90% | 100% | 100% | 100% | 100% | 90% | 100% | 100% | 100% | 100% |  |
| C=CCOCC1CCC2(C1)NC(=O)C(c1c(F)cc(C#CC)cc1OC)=C2OC(=O)OCC (centres unmarked) [Example P-78] |  | 90% | 100% | 100% | 100% | 100% |  | 100% | 100% | 100% | 100% |  |
| CC#Cc1cc(Br)c(C2=C(OC(=O)OCC)C3(CCC(COC)C3)NC2=O)c(OCC)c1 (centres unmarked) [Example P-94] |  | 80% | 100% | 100% | 100% |  | 90% | 100% | 100% | 100% | 100% | 100% |
